In assay [1] the test system is HL-60. Nature of the assay: Compound was evaluated for the competitive inhibition of the MRP1/GS-X pump mediated transport of LTC4 in the cisplatin-resistant human leukemia HL-60 (HL-60/R-CP) cells. In kind it is functional, cell-based.
Assay [2] relates to HL-60. As to the kind of experiment: Inhibitory activity against MRP1/GS-X pump mediated transport of delta7-PGA1 methyl ester glutathione conjugate in the cisplatin-resistant human leukemia HL-60 (HL-60/R-CP) cells. In kind it is functional, cell-based.

pIC50: −log10 of the molar value.

On to `N[C@@H](CCC(=O)N[C@@H](CSCCCCCc1ccc(C(=O)c2ccccc2)cc1)C(=O)NCC(=O)O)C(=O)O`, for which the negative-log IC50 (pIC50) in the assay on HL-60 [1] was 6.40; with HL-60 [2], 6.28.

By pIC50 is commonly meant the IC50 on a negative log10 scale, so that one unit is a factor of ten. Lower therefore signals a high IC50.
